Here are results for six molecules from patent publication US5773014A, “Compositions and methods for inhibiting the formation of unwanted skin pigmentation” (priority 1996, dated 1998).

Each structure is given as a SMILES string. In brackets after ≈: the same amount, converted by molar mass.

For one series, the system named is tyrosinase. Briefly: in vitro tyrosinase inhibition (dopachrome formation from L-Dopa, spectrophotometry at 475 nm). Format: biochemical. An excerpt:
Tyrosinase catalyzes the formation of L-dopaquinone, and then dopachrome (in the eumelanin pathway), from L-Dopa. […] Comparisons in the rate at which this colored substance appears in the presence of a candidate whitening material indicate the effect of the material on enzymatic activity; complete absence of dopachrome reflects total inhibition of tyrosinase.

For the next series, the system named is cells in a culture. As to conditions: reported for other skin whiteners; cited from earlier work.
The nature of another series: solubility. Format: physicochemical. As to conditions: read-out: max. solubility.
A further series relates to human skin explants. To be noted: 0.55% (w/v), positive control; L-Dopa 0.05M, 15 hours at 37° C.

Procedure for human skin explants: The anti-tyrosinase activity of the invention was also evaluated using an ex vivo tissue model by exposing human skin explants to the material. […] Oxidation of L-Dopa by tyrosinase produces in the melanocyte an observable black pigment, which can easily be detected by optical microscopy. Tyrosinase activity can be measured by the intensity of the observed coloration.
A positive control and a negative control were also conducted in the same experiment. […] The explants, each exposed to a different test solution, were incubated with L-Dopa (0.05M) for 15 hours at 37° C. After fixation and inclusion in paraffin, the skin slices were colored with hemalun/eosin/safran and cresyl violet, and observed by optical microscopy under white light.

For `O=C1O[C@H]([C@@H](O)CO)C(O)=C1O` [Ascorbic acid, ascorbic acid], the “Tyrosinase Inhibition (%)” value in the series with tyrosinase (concentration 0.1%) stood at 66%. The “IC50 (cytotoxicity, kills more than 50% of the cells in a culture)” value in the series with cells in a culture is 880 µg/mL.

`O=c1cc(CO)occ1O` [kojic acid]: the entries for the “Tyrosinase Inhibition (%)” value with tyrosinase (concentration 0.1%) and in the series on tyrosinase (concentration 1%) were 71% and 80%, respectively.

`OC[C@H]1O[C@@H](Oc2ccc(O)cc2)[C@H](O)[C@@H](O)[C@@H]1O` [Pure Arbutin, arbutin]: the solubility (as a rule, the dissolved amount per volume that the medium holds) in “solubility” was 50 mg/mL (≈ 184 mM). For the same molecule, the “Tyrosinase Inhibition (%)” value in the series on tyrosinase (concentration 0.2%) amounted to 20%; in the series on tyrosinase (concentration 0.5%) it was 25%; with tyrosinase (concentration 2.5%) it was 35%; in the series with tyrosinase (concentration 5%), 45%.

With `O=C(O)CN(CCN(CC(=O)O)CC(=O)O)CC(=O)O` [EDTA, ethylenediaminetetraacetic acid], the “Tyrosinase Inhibition (%)” value in the series with tyrosinase (concentration 0.1%) is on record as 0%; in the series on tyrosinase (concentration 1%) it was 47.3%; in the series with tyrosinase (concentration 5%) it was 78.9%.

Turning to `Oc1ccc(O)cc1` [hydroquinone], in the series on human skin explants, the “formation of melanin in explant melanocytes” value was “completely inhibited the formation of melanin”. For the same molecule, the “tyrosinase-inhibiting activity (in words)” value with tyrosinase (tested at different concentrations (FIG. 1)) is “exhibits no tyrosinase-inhibiting activity”. In the series with cells in a culture, the “IC50 (cytotoxicity, kills more than 50% of the cells in a culture)” value was 5.5 µg/mL.

For the molecule `CCCCC/C=C\C/C=C\CCCCCCCC(=O)O` [linoleic acid], the “IC50 (cytotoxicity, kills more than 50% of the cells in a culture)” value in the series on cells in a culture is 2.8 µg/mL.
